# “And” between values parts separate entries of the source, which are not always exact repeats. Identical values can stand only once. Like-named read-outs stand apart in the source and are kept apart here.
# Legend:
# [1] = Pharmacokinetic evaluation of CM4309.TsOH, CM4309.HCl and CM4309.H2O in SD rats; type: in vivo; details: for AUCINF_obs / AUClast / Cmax / HL_Lambda_z / MRTINF_obs / Tmax / AUC(0-t) / AUC(0-inf) / MRT inf: 3 mg/kg (calculated by CM4309) intragastric, suspension in 0.5% CMC, CM4309 in plasma; for AUClast (Area Under Curve, Plasma Exposure) relative to CM4309.H2O / Cmax relative to CM4309.H2O: SD rats, 3 mg/kg intragastric, ratio to CM4309.H2O; for AUC(0-inf): read-out: AUCINF_obs; for MRT inf: read-out: MRTINF_obs
# Procedure: Twelve male SD rats, weighing about 170 g, were randomly separated into […] and four rats in each group, and fasted overnight. The rats were administrated intragastric ally at a dose of 3 mg/kg (in a concentration of 1 mg/mL calculated by CM4309, and suspended in 0.5% CMC in purified water) of CM4309.TsOH, CM4309.HCl or CM4309.H2O. After administration, blood samples were collected at 0.25, 0.5, 1, 2, 4, 6, 8, 12, 24, 36 and 48 h. The blood samples were centrifuged for 5 minutes at 5000 rpm to separate the plasma. The concentration of CM4309 in plasma was measured by LC/MS/MS to compare the PK difference between CM4309 salts and CM4309 (see Table 1).
# [2] = Pharmacokinetic evaluation of CM4309.TsOH and CM4309.H2O in Beagle dogs; type: in vivo; details: for AUClast / Cmax / Tmax / AUC(0-t): 2.5 mg/kg (calculated by CM4309) oral in capsule, 2×2 crossover, CM4309 in plasma
# Procedure: Four female Beagle dogs, 7-9 months old, weighing about 8 kg, were randomly separated into two groups and two dogs in each group, and fasted overnight. The dogs were administrated orally at a dose of 2.5 mg/kg (calculated by CM4309) of CM4309.TsOH or CM4309.H2O in capsule with 2×2 crossover design. Blood samples were collected before administration and at 0.25, 0.5, 1, 2, 4, 6, 8, 12, 24, 36 and 48 h after administration. The blood samples were centrifuged for 10 minutes at 3500 rpm to separate the plasma. The concentration of CM4309 in plasma was measured by LC/MS/MS to compare the PK difference between CM4309 salts and CM4309 (see Table 2).
# [3] = individual rat, hydrochloride, 3 mg/kg
# [4] = male, SD, rat, plasma, po, 3 mg/kg, Mean of 4 rats
# [5] = male, SD, rat, plasma, po, 3 mg/kg, Mean of 4 rats, read-out: Cmax
# [6] = male, SD, rat, plasma, po, 3 mg/kg, Mean of 4 rats, read-out: Tmax
# [7] = male, SD, rat, plasma, po, 3 mg/kg, individual rat
# [8] = male, SD, rat, plasma, po, 3 mg/kg, individual rat, read-out: Tmax
# [9] = individual rat, p-toluenesulfonate, 3 mg/kg
# [10] = Beagle dogs, 2.5 mg/kg oral in capsule, ratio to CM4309.H2O
# [11] = individual dog, p-toluenesulfonate, 2.5 mg/kg
smiles,measurement,setting,value
[2H]C([2H])([2H])NC(=O)c1cc(Oc2ccc(NC(=O)Nc3ccc(Cl)c(C(F)(F)F)c3)c(F)c2)ccn1 [CM4309.H2O],AUCINF_obs,[1]; Mean of 4 rats,664 ng·h/mL
same,AUClast,[1]; Mean of 4 rats,643 ng·h/mL
same,Cmax,[1]; Mean of 4 rats,45.2 ng/mL
same,HL_Lambda_z,[1]; Mean of 4 rats,7.62 h
same,MRTINF_obs,[1]; Mean of 4 rats,13.55 h
same,Tmax,[1]; Mean of 4 rats,6.5 h
same,AUCINF_obs,"[1]; individual rat, 3 mg/kg",701 ng·h/mL and 827 ng·h/mL and 657 ng·h/mL and 470 ng·h/mL
same,AUClast,"[1]; individual rat, 3 mg/kg",675 ng·h/mL and 806 ng·h/mL and 635 ng·h/mL and 459 ng·h/mL
same,Cmax,"[1]; individual rat, 3 mg/kg",52.6 ng/mL and 53.3 ng/mL and 42.9 ng/mL and 31.8 ng/mL
same,HL_Lambda_z,"[1]; individual rat, 3 mg/kg",8.73 h and 9.26 h and 6.41 h and 6.08 h
same,MRTINF_obs,"[1]; individual rat, 3 mg/kg",14.87 h and 14.06 h and 13 h and 12.25 h
same,Tmax,"[1]; individual rat, 3 mg/kg",6 h and 4 h and 8 h
same,AUClast,[2]; Mean of 4 dogs,404 ng·h/mL
same,Cmax,[2]; Mean of 4 dogs,28 ng/mL
same,Tmax,[2]; Mean of 4 dogs,20 h
same,AUClast,"[2]; individual dog, 2.5 mg/kg",319 ng·h/mL and 829 ng·h/mL and 243 ng·h/mL and 224 ng·h/mL
same,Cmax,"[2]; individual dog, 2.5 mg/kg",34.6 ng/mL and 50 ng/mL and 11.1 ng/mL and 16.4 ng/mL
same,Tmax,"[2]; individual dog, 2.5 mg/kg",24 h and 8 h
"Cl.[2H]C([2H])([2H])NC(=O)c1cc(Oc2ccc(NC(=O)Nc3ccc(Cl)c(C(F)(F)F)c3)c(F)c2)ccn1 [CM4309.HCl, 4-(4-(3-(4-chloro-3-(trifluoromethyl)phenyl]ureido)-3-fluorophenoxy)-N-(methyl-d3)picolinamide hydrochloride]",HL_Lambda_z,[1]; Mean of 4 rats,8.25 h
same,"AUClast (Area Under Curve, Plasma Exposure) relative to CM4309.H2O",[1],8.7 folds
same,Cmax relative to CM4309.H2O,[1],8.4 folds
same,AUCINF_obs,[1]; [3],6634 ng·h/mL and 7151 ng·h/mL and 4379 ng·h/mL
same,AUClast,[1]; [3],6514 ng·h/mL and 7021 ng·h/mL and 4258 ng·h/mL
same,Cmax,[1]; [3],457 ng/mL and 460 ng/mL and 281 ng/mL
same,HL_Lambda_z,[1]; [3],8.17 h and 7.77 h and 8.32 h and 8.74 h
same,MRTINF_obs,[1]; [3],12.93 h and 12.58 h and 15.62 h
same,Tmax,[1]; [3],8 h
same,Tmax,"[1]; male, SD, in vivo, po, individual rat, read-out: Tmax",4 h
same,AUC(0-t),[1]; [4],5570 ng·h/mL
same,AUC(0-inf),[1]; [4],5690 ng·h/mL
same,Cmax,[1]; [5],379 ng/mL
same,MRT inf,[1]; [4],13.8 h
same,Tmax,[1]; [6],5.5 h
same,AUC(0-t),[1]; [7],4490 ng·h/mL
same,AUC(0-inf),[1]; [7],4610 ng·h/mL
same,Cmax,"[1]; male, SD, rat, plasma, po, 3 mg/kg, individual rat, read-out: Cmax",316 ng/mL
same,MRT inf,[1]; [7],13.9 h
same,Tmax,[1]; [8],6 h
"Cc1ccc(S(=O)(=O)O)cc1.[2H]C([2H])([2H])NC(=O)c1cc(Oc2ccc(NC(=O)Nc3ccc(Cl)c(C(F)(F)F)c3)c(F)c2)ccn1 [CM4309.TsOH, 4-(4-(3-(4-chloro-3-(trifluoromethyl)phenyl]ureido)-3-fluorophenoxy)-N-(methyl-d3)picolinamide p-toluenesulfonate]",HL_Lambda_z,[1]; Mean of 4 rats,7.91 h
same,"AUClast (Area Under Curve, Plasma Exposure) relative to CM4309.H2O",[1],11.2 folds
same,Cmax relative to CM4309.H2O,[1],10.7 folds
same,AUCINF_obs,[1]; [9],5631 ng·h/mL and 7380 ng·h/mL and 10651 ng·h/mL
same,AUClast,[1]; [9],5542 ng·h/mL and 7237 ng·h/mL and 10406 ng·h/mL
same,Cmax,[1]; [9],312 ng/mL and 402 ng/mL and 518 ng/mL and 696 ng/mL
same,HL_Lambda_z,[1]; [9],8.55 h and 7.37 h and 7.48 h and 8.25 h
same,MRTINF_obs,[1]; [9],12.05 h and 12.72 h and 13.6 h
same,Tmax,[1]; [9],4 h
same,AUC(0-t),[1]; [4],7180 ng·h/mL
same,AUC(0-inf),[1]; [4],7340 ng·h/mL
same,Cmax,[1]; [5],482 ng/mL
same,MRT inf,[1]; [4],13.3 h
same,Tmax,[1]; [6],5.5 h
same,AUC(0-t),[1]; [7],5540 ng·h/mL
same,AUC(0-inf),[1]; [7],5700 ng·h/mL
same,MRT inf,[1]; [7],14.8 h
same,Tmax,[1]; [8],6 h
same,AUClast relative to CM4309.H2O,[2]; [10],12.1 folds
same,Cmax relative to CM4309.H2O,[2]; [10],26 folds
same,AUC(0-t),"[2]; female, Beagle, dog, plasma, po, 2.5 mg/kg, Mean of 4 dogs",4870 ng·h/mL
same,Cmax,"[2]; female, Beagle, dog, plasma, po, 2.5 mg/kg, Mean of 4 dogs, read-out: Cmax",728 ng/mL
same,AUC(0-t),"[2]; female, Beagle, dog, plasma, po, 2.5 mg/kg, individual dog",5240 ng·h/mL
same,Tmax,"[2]; female, Beagle, individual dog, read-out: Tmax",2 h
same,AUClast,[2]; [11],5362 ng·h/mL and 5045 ng·h/mL and 3827 ng·h/mL
same,Cmax,[2]; [11],996 ng/mL and 437 ng/mL and 483 ng/mL

# Reference: US20150175545A1, “Preparation Method of Fluoro-Substituted Deuterated Diphenylurea” (SUZHOU ZELGEN BIOPHARMACEUTICAL CO., LTD, priority 2012, published 2015)
